Series [1] concerns SARS-CoV-2. Nature of the series: microbe, parasite or virus in culture. The series is classed as cell-based, SARS-CoV-2 (hCoV-19/Russia/Moscow-PMVL-12/2020 strain). To be noted: for log reduction at 50 µM: Severe acute respiratory syndrome coronavirus 2, Vero C1008, 96 h, read-out: Δlog10(RNA), logarithmic change in the SARS-CoV-2 RNA levels; for Effect on SARS-CoV-2 viral RNA titer: summary of Table 1.

The subject of series [2] is Vero E6 cells.
The subject of series [3] is MDCK cells. To be noted: concentration decreasing cell number by 50%.
The subject of series [4] is SARS-CoV-2. The series is described as follows: microbe, parasite or virus in culture. The series is classed as cell-based, SARS-CoV-2 (hCoV-19/Russia/Moscow-PMVL-12/2020 strain). To be noted: for log reduction at 50 µM / log reduction at 20 µM: Severe acute respiratory syndrome coronavirus 2, Vero C1008, Vero E6, vs DMSO-treated control, read-out: Δlog10(TCID50) SARS-CoV-2; for Effect on SARS-CoV-2 infectivity, TCID50 in Vero cells: summary of Table 1; for log reduction at 20 µM: measured at 20 µM.

Series [5] relates to Influenza A/California/7/2009 (H1N1)pdm09. The series is described as follows: organism not typed. Format: cell-based, Influenza virus. To be noted: for IC50: read-out: IC50 ± SD Influenza Virus; for log reduction at 50 µM: read-out: Δlog10(TCID50) Influenza Virus.
The mark [6] stands for this setting: concentration reducing the cell number by 50%, MTT.
[7] abbreviates: African green monkey (Chlorocebus aethiops).

Like-named read-outs stand apart in the source and are kept apart here.

As to `O=c1nc(NO)ccn1[C@@H]1O[C@H](CO)[C@@H](O)[C@H]1O` [NHC, N4-hydroxycitidine, reference compound], in series [1] (measured at 10 µM (footnote *), Vero E6, vs DMSO), the “Δlog10(RNA), logarithmic change in the SARS-CoV-2 RNA levels” value is 3.9 *. Moreover, the “CD50 ± SD Vero E6” value in series [2] (setting [6]) is listed as 80 ± 18 µM.
For orientation: IC50 means the concentration needed to halve the response being measured. For the compound `CC(C)(C)c1ccc(Nc2cn(C3C=CC(O)C3)c(=O)[nH]c2=O)cc1` (stereo not shown) [Compound 8], in series [3], the “CD50 ± SD MDCK” value was 552 ± 35 µM. Besides, in series [4], the log reduction at 50 µM came to 0.5 and the “Effect on SARS-CoV-2 infectivity, TCID50 in Vero cells” value (shortened to “Effect on SARS-CoV-2 infectivity”) is recorded as “weak protection”. In series [1], the “Anti-SARS-CoV-2 activity grade” value was “Moderate activity”, the log reduction at 50 µM was found to be 1.1 and the “Effect on SARS-CoV-2 viral RNA titer” value is “visible reduction”. Also, in series [5] (MDCK), the IC50 is > 50 µM. In addition, in series [5] (at 50 µM, MDCK cells), the log reduction at 50 µM was 0.5. Further, in series [2] (setting [7]), the “CD50 ± SD Vero E6” value is reported as >500 µM.
In the case of “1-(β-D-Ribofuranosyl)-5-(4-tert-butylphenoxy)-uracil [Compound 13]”, the “CD50 ± SD MDCK” value in series [3] was >1000 µM. Also, in series [1], the “Anti-SARS-CoV-2 activity grade” value was “Moderate activity” and the “Δlog10(RNA), logarithmic change in the SARS-CoV-2 RNA levels” value was 0.8. In series [5] (at 50 µM, MDCK cells), the “Δlog10(TCID50) Influenza Virus” value was 0.5. Further, the IC50 in series [5] is > 50 µM. The “CD50 ± SD Vero E6” value in series [2] (setting [6]) is listed as >500 µM.
Regarding `CC(C)(C)c1ccc(Oc2cn(C3C=CC(O)C3)c(=O)[nH]c2=O)cc1` (stereo not shown) [Compound 11], the “CD50 ± SD MDCK” value in series [3] was >1000 µM. Also, the log reduction at 20 µM in series [4] is 1. Moreover, in series [1], the “Anti-SARS-CoV-2 activity grade” value was “Moderate activity” and the log reduction at 50 µM is 0.7. The IC50 in series [5] (MDCK) is > 50 µM. In series [5] (at 50 µM, MDCK cells), the log reduction at 50 µM is -0.5. In addition, in series [2] (setting [7]), the “CD50 ± SD Vero E6” value is reported as 440 ± 6 µM.
For `CCOC(=O)C1=C[C@@H](OC(CC)CC)[C@H](NC(C)=O)[C@@H](N)C1` [Oseltamivir, reference compound], in series [3], the “CD50 ± SD MDCK” value came out at 500 ± 82 µM. The IC50 in series [5] (MDCK) turned out to be 0.61 ± 0.15 µM. Also, the “SI (selectivity index), the ratio of CD50 to IC50” value in series [5] (influenza virus, MDCK cells) worked out at 820.
With `CCCCCc1ccc(-c2cc3cn([C@@H]4O[C@H](CO)[C@@H](O)[C@H]4O)c(=O)nc3o2)cc1` [Compound 4, 3-(β-D-Ribofuranosyl)-6-(4-pentylphenyl)-3H-furano [2,3-d]-pyrimidine-2-on], the “CD50 ± SD MDCK” value in series [3] is reported as 652 ± 77 µM. Also, the log reduction at 20 µM in series [4] stood at 0.5. In addition, the log reduction at 50 µM in series [1] turned out to be 0.2; in series [5] (at 50 µM, MDCK cells) it was 1. Further, the IC50 in series [5] (MDCK) is > 25 µM. For the same compound, the “CD50 ± SD Vero E6” value in series [2] (setting [7]) is >500 µM.
In the case of `CCCCCc1ccc(-c2cc3cn(COCCO)c(=O)[nH]c-3n2)cc1` [Compound 7, 3-((2-(Hydroxy)ethoxy)methyl)-6-(4-pentylphenyl)-3H-pyrrolo [2,3-d]-pyrimidine-2-one], the “CD50 ± SD MDCK” value in series [3] is 74 ± 12 µM. In addition, in series [4], the log reduction at 50 µM amounted to 0 and the “Effect on SARS-CoV-2 infectivity” value is “inactive”. Also, in series [1], the log reduction at 50 µM worked out at 0.4 and the “Effect on SARS-CoV-2 viral RNA titer” value is “inactive”. The IC50 in series [5] (MDCK) was > 50 µM. The log reduction at 50 µM in series [5] (at 50 µM, MDCK cells) came to 0.5. Moreover, the “CD50 ± SD Vero E6” value in series [2] (setting [7]) was 240 ± 19 µM.
Take `CCCCCc1ccc(-c2cc3cn([C@@H]4O[C@H](CO)[C@@H](O)[C@H]4O)c(=O)[nH]c-3n2)cc1` [Compound 6, 3-(β-D-ribofuranosyl)-6-(4-pentylphenyl)-3H-pyrrolo [2,3-d]-pyrimidine-2-on]: the “CD50 ± SD MDCK” value in series [3] stood at 614 ± 52 µM. Moreover, the log reduction at 50 µM in series [4] turned out to be 0; in series [1] it was 0.2; in series [5] (at 50 µM, MDCK cells), 0. The “Effect on SARS-CoV-2 infectivity” value in series [4] is “inactive”. The “Effect on SARS-CoV-2 viral RNA titer” value in series [1] was “inactive”. Besides, the IC50 in series [5] (MDCK) was > 50 µM. The “CD50 ± SD Vero E6” value in series [2] (setting [7]) amounted to 450 ± 166 µM.

The record behind these values is publication PMC9959748, “Nucleoside Analogs That Inhibit SARS-CoV-2 Replication by Blocking Interaction of Virus Polymerase with RNA” (International Journal of Molecular Sciences, 2023).
